Test results: article PMC3991570, “A Novel Highly Potent Autotaxin/ENPP2 Inhibitor Produces Prolonged Decreases in Plasma Lysophosphatidic Acid Formation In Vivo and Regulates Urethral Tension” (PLoS ONE, 2014)
Structures can show the parent of a compound that is named as a salt.

Key:
[1] = target: T1, recombinant human ATX/ENPP2 (Homo sapiens, UniProt Q13822); assay: FS-3 assay of LysoPLD activity (2 h); format: biochemical; conditions: synthetic fluorescent substrate FS-3, 2 h; read-out: In vitro IC50, Recombinant human ATX/ENPP2, FS-3 (2 h)
T1 construct: (His)6 (C); made in house; host or cells: baculovirus AcNPV; virus made in Sf9, protein expressed in expresSF+ insect cells, from culture supernatant
Method: Recombinant ATX/ENPP2 protein (2 µg/ml) and various concentrations of the inhibitors were mixed and incubated at 37°C for 2 h in 100 mM Tris-HCl buffer (pH 8.0) containing 1%DMSO, 500 mM NaCl, 5 mM MgCl2, and 0.05% Triton X-100, in the presence of a fluorescent substrate FS-3 (1 µM). After incubation, fluorescence at 520 nm with excitation at 494 nm was measured.
(§1) Measurement points of choline production were plotted against the concentration of the inhibitor and the theoretical curve to obtain the IC50 value of the inhibitor for LysoPLD activity was obtained using the Activity Base version 7.1.0.39 software from ID Business Solutions Ltd.

[2] = target: T1, recombinant human ATX/ENPP2; assay: Choline release assay, 16:0-LPC substrate, overnight (15 h) incubation; format: biochemical; conditions: about 15 h incubation, read-out: In vitro IC50, Recombinant human ATX/ENPP2, Choline (O/N)
Method: A series of reaction mixtures containing different concentrations of the inhibitors were also tested in parallel using an overnight incubation. First, the aqueous solution of recombinant ATX/ENPP2 (final concentration 2 µg/ml) or plasma samples from various animal species (final concentration 40%) was added to the reaction mixture containing different concentrations of ATX/ENPP2 inhibitors, 1 mM 16:0-LPC, and 1% DMSO. Then, each mixture was incubated at 37°C for 15 h (primary reaction). Samples of each mixture were subjected to the secondary reaction with 10 volumes of 300 µM TOOS in 100 mM Tris-HCl solution (pH 8.5), 500 µM 4-aminoantipyrine, 600 mU/ml horseradish peroxidase, 3 U/ml choline oxidase, and 5 mM CaCl2, at 37°C for 20 min (secondary reaction). […] Measurement points of choline production were plotted against the concentration of the inhibitor and the theoretical curve to obtain the IC50 value of the inhibitor for LysoPLD activity was obtained using the Activity Base version 7.1.0.39 software from ID Business Solutions Ltd.

[3] = target: T1, recombinant human ATX/ENPP2; assay: Choline release assay, 16:0-LPC substrate, 30 min incubation; format: biochemical; conditions: read-out: In vitro IC50, Recombinant human ATX/ENPP2, Choline (30 min)
Method: In the choline release assay, a series of reaction mixtures containing different concentrations of the inhibitors were tested in parallel. Recombinant ATX/ENPP2 was dissolved in 100 mM Tris-HCl buffer (pH 9.0) containing 500 mM NaCl, 5 mM MgCl2 and 0.05% Triton X-100. First, the aqueous solution of recombinant ATX/ENPP2 (final concentration 2 µg/ml) was added to the reaction mixture containing different concentrations of the inhibitors, 1 mM 16:0-LPC, and DMSO 1%. Then, each mixture was incubated at 37°C for 30 min (primary reaction). A samples of each reaction mixture was subjected to the secondary incubation at 37°C for 30 min with 10 times the volume of 100 µM Amplex Red in 50 mM Tris-HCl buffer (pH 8.0), 1 U/ml horseradish peroxidase, 150 mU/ml choline oxidase and 5 mM CaCl2,. Fluorescence at 590 nm was measured with excitation at 544 nm and the amount of choline released in each reaction mixture was quantified based on a calibration curve created from a choline chloride standard.
as §1

plasma LPA = system: plasma LPA; set-up: method as in PMID 20392816; conditions: at 24 h after administration; cited from earlier work
[4] = system: urethane-anesthetized rats; assay: Intraurethral pressure (IUP) in urethane-anesthetized rats; format: in vivo, rat
Method: Male Crl∶CD(SD) rats (7–8 weeks old) were anesthetized by intraperitoneal administration of urethane at a dose of 1.5 g/5 ml/kg. An arterial catheter (JMS cut-down tube; C3, JMS, Japan) was inserted into the common carotid artery to monitor blood pressure. After the abdomen was opened, another catheter (inner diameter, 0.9 mm; outer diameter, 1.5 mm; Shin-Etsu Polymer, Japan) was inserted into the duodenum and held in place with a suture thread. The abdomen was then cut along the median line and the urethra was ligated in the proximity of the pubic bone. For measurement of intraurethral pressure (IUP), a urethral catheter (JMS cut-down tube; C3, JMS Inc., Japan) was inserted from the top side of the bladder through the urethra and held in place by ligation at the bladder neck. Finally, both the arterial catheter and urethral catheter were connected to a pressure transducer (Nihon Kohden, Japan), and the rat was placed on a warm mat (37°C). Blood pressure and IUP were measured by a recorder (Graphtec, Japan) using a torsion-pressure amplifier (Nihon Kohden, Japan).
ONO-8430506 was dissolved in an aqueous solution containing 1.1 times the equivalent amount of NaOH. After confirming stabilization of IUP, rats received either the inhibitor or tamsulosin at a dose of 2 ml/kg in an aqueous solution through the duodenal catheter. IUP and blood pressure were measured continuously during the 20-min after administration of either the inhibitor or tamsulosin. At the end of the 20-min period, heparinized blood was collected from the jugular vein of the rat to prepare a plasma sample. Rats were then euthanized by intravenous administration of 1 ml of pentobarbital (Somunopentyl, Kyoritsu Seiyaku Corporation). Postmortem IUP was measured until the lowest IUP value was reached and stabilized. The maximum percent decreases relative to the difference between baseline IUP and postmortem IUP was calculated to measure the change from baseline in IUP during the 20-min after drug administration.

[5] = system: urethane-anesthetized rats; assay: Mean blood pressure in urethane-anesthetized rats; format: in vivo, rat; conditions: intraduodenal, up to 3 mg/kg (tamsulosin at the same dose range)
Method: Male Crl∶CD(SD) rats (7–8 weeks old) were anesthetized by intraperitoneal administration of urethane at a dose of 1.5 g/5 ml/kg. An arterial catheter (JMS cut-down tube; C3, JMS, Japan) was inserted into the common carotid artery to monitor blood pressure. After the abdomen was opened, another catheter (inner diameter, 0.9 mm; outer diameter, 1.5 mm; Shin-Etsu Polymer, Japan) was inserted into the duodenum and held in place with a suture thread. The abdomen was then cut along the median line and the urethra was ligated in the proximity of the pubic bone. […] Blood pressure and IUP were measured by a recorder (Graphtec, Japan) using a torsion-pressure amplifier (Nihon Kohden, Japan).
ONO-8430506 was dissolved in an aqueous solution containing 1.1 times the equivalent amount of NaOH. […] IUP and blood pressure were measured continuously during the 20-min after administration of either the inhibitor or tamsulosin. […] Postmortem IUP was measured until the lowest IUP value was reached and stabilized. The maximum percent decreases relative to the difference between baseline IUP and postmortem IUP was calculated to measure the change from baseline in IUP during the 20-min after drug administration.

isolated rat urethra = assay: Contraction of isolated rat urethra (Magnus apparatus); conditions: 100 nM to 30 µM added cumulatively
Method: Krebs-Henseleit buffer (112 mM NaCl, 5.9 mM KCl, 2.0 mM CaCl2, 1.2 mM MgCl2, 1.2 mM NaH2PO4, 25.0 mM NaHCO3 and 11.5 mM glucose) was prepared and aerated with 95%O2+5%CO2. 8-week old male CD (SD) IGS rats (Charles River Laboratories Japan, Inc.) were decapitated and exsanguinated. The urethra was excised and immediately immersed in ice-cooled Krebs-Henseleit buffer. The excised urethra was cut open and flattened using ophthalmologic scissors. The opened and flattened urethra was cut along the circular muscle into ‘ring-shaped’ strips 2–3 mm in width×3–4 mm in length using a razor. One ‘ring-shaped’ urethral specimen was prepared for each male rat.
Each prepared urethral specimen was hung inside a 5-ml Magnus tube filled with Krebs-Henseleit buffer (30°C). A resting tension of approximately 0.5 g was applied to the specimen for 60 min until it was stabilized. Thereafter, contraction motions of the specimen were recorded on a linear recorder (Model WR3320, Graphtec Corp.) after being amplified by a torsion-pressure amplifier (Models AP-641G and AP-601G, Nihon Kohden Corporation) and a force displacement pick-up transducer (Model TB-611T, Nihon Kohden Corporation). […] Phenylephrine (10 nM to 1 mM, Sigma-Aldrich) or 18:3-LPA (100 nM to 30 µM) was cumulatively added to the medium and the contractile force of each urethral specimen was measured.

O=C1S/C(=C\c2ccc(OCc3cccc(B(O)O)c3)cc2)C(=O)N1Cc1ccc(F)cc1 [HA130]
IC50 [1]: 120 nM
IC50 [2]: 580 nM
IC50 [3]: 43 nM

O=C(CCN1CCN(C(=O)OCc2cc(Cl)cc(Cl)c2)CC1)c1ccc2[nH]c(=O)oc2c1 [PF-8380]
plasma LPA level after oral administration (plasma LPA): returned to the normal baseline level

CCCCCCCCCCCCCC(=O)Nc1ccc(CP(=O)(O)O)cc1 [S32826]
IC50 [1]: 17 nM
IC50 [2]: > 10000 nM
IC50 [3]: 66 nM

CCOc1ccccc1OCCN[C@H](C)Cc1ccc(OC)c(S(N)(=O)=O)c1 [tamsulosin, tamsulosin hydrochloride]
decrease in IUP ([4]; 0.3 mg/kg intraduodenal, maximum percent decrease during 20 min): 28%
dose of maximum effect on IUP ([4]; intraduodenal): 0.3 mg/kg
doses at which IUP decreased ([4]; intraduodenal): higher than 0.03 mg/kg
effect on mean blood pressure (MBP) [5]: drastically decreased

linolenoyl-lysophosphatidic acid [18:3-LPA]
contractile effect in isolated rat urethra (isolated rat urethra): comparable to phenylephrine
